# “And” between values parts separate entries of the source, which are not always exact repeats. Equal values may be shown once. Read-outs that look alike come from different tables or passages of the source.
# Key:
# hESC-derived cells = assay: Albumin secretion, ELISA; format: cell-based, human
# Method: The levels of albumin (ALB) secreted by hESC-derived monolayer and aggregate populations, as well as by HepG2 cells, Huh7 cells and cryopreserved hepatocytes (PH, lot OSI) was detected using an ELISA assay. […] Only low levels were detected in HepG2, Huh7 and PH cells. By contrast, the capacity to take up indocyanine green (ICG), a characteristic of adult hepatocytes (Stieger et al., 2012) was enhanced by cAMP signaling. ICG uptake and release by cAMP-treated and non-treated was measured in day 44 aggregates.
# [1] = system: UDP-glucuronosyltransferase (UGT); assay: Total UGT activity, 4-MU glucuronidation; format: in vitro ADME, human; conditions: cAMP-treated aggregates versus primary cultured hepatocytes
# [2] = system: hESC-derived hepatic aggregates; assay: Intracellular flow cytometry of AFP+ and ALB+ cells in hepatic aggregates; format: cell-based, human; conditions: day 44 aggregates
# Method: The proportion of ALB positive cells, on the other hand, was higher in the cAMP-treated population (89.5+/−5.6% vs 82.3+/−3.0%, P<0.05 (mean+/−SD, n=3).
# Flow cytometric analyses were performed as described previously^45. For cell surface markers, staining was carried out in PBS with 10% FCS. For intracellular proteins, staining was performed on cells fixed with 4% paraformaldehyde (Electron Microscopy Science, Hatfield, PA, USA) in PBS. Cells were permeabilized with 90% ice-cold methanol for 20 minutes for Sox17 and FoxA2 staining as previously described^45. Albumin and alpha-fetoprotein staining was performed in PBS with 10% FCS and 0.5% saponin (Sigma). Stained cells were analyzed using an LSRII flow cytometer (BD).
# [3] = system: hESC-derived hepatic aggregates
# Text: To further mature the cells, the role of cAMP signaling was investigated. Studies using hepatic cell lines have shown that activation of this pathway can induce hepatic gene expression, in part through the induction of the peroxisome proliferator-activated receptor gamma coactivator-1-alpha (PGC1-a), a coactivator that functions together with HNF4a to regulate the expression of many genes involved in hepatocyte function 25 28. […] The proportion of ALB positive cells was not reduced in spite of the fact that the levels of mRNA declined (FIG. 5b). Without being bound by theory, these differences could reflect differences in RNA vs. protein expression. Other tissues, such as the pancreas, also express PGC-1a.
# HPSCs were maintained on irradiated mouse embryonic feeder cells in hESC media consisting of DEME/F12 (50:50; Gibco) supplemented with 20% Knock-out serum replacement (KSR) as described previously^44. Prior to the generation of embryoid bodies (EBs), hESCs were passaged onto Matrigel™-coated plates for 1 day to deplete the population of feeder cells. […] At day 1, the EBs were harvested and re-cultured in induction medium A that consisted of StemPRO-34® supplemented with glutamine (2 mM), ascorbic acid ([…]; Sigma), MTG ([…]; Sigma), basic fibroblast growth factor (bFGF; 2.5 ng/ml), activin A (100 ng/ml), Wnt3a (25 ng/ml) and BMP4 (0.25 ng/ml) for 3 days. On day 4, the EBs were harvested and re-cultured in StemPRO-34® supplemented with bFGF (10 ng/ml), activin A (100 ng/ml), Wnt3a (25 ng/ml) and BMP4 (0.25 ng/ml) (medium B). EBs were harvested at day 6, dissociated to single cells and the cells cultured for 2 days on Matrigel™-coated 12 well plates at a concentration of 4×10^5 cells in media B without Wnt3A and with activin A at a concentration of 50 ng/ml. At day 8, medium B was replaced with hepatic specification media that consisted of Iscove's Modified Dulbecco's Medium (IMDM) supplement with 1% vol/vol B27 supplement (Invitrogen: A11576SA), ascorbic acid, MTG, FGF10 (50 ng/ml) (from day 8 to day 10), bFGF (20 ng/ml) (from day 10 to day 14), and BMP4 (50 ng/ml). Media was changed every 2 days from day 8 to day 14. To promote maturation of HES2-derived hepatic cells, they were cultured in maturation media A for 12 days. Maturation media A consisted of IMDM with 1% vol/vol B27 supplement, ascorbic acid, Glutamine, MTG, Hepatocyte growth factor (HGF) (20 ng/ml), Dexamethasone Dex) (40 ng/ml) and Oncostatin M (20 ng/ml). Aggregates were generated from the population at day 26 of culture. To generate aggregates the cells were dissociated with collagenase and TrypleLE and then cultured in six well ultra-low cluster dishes at a concentration of 6×10^5 cells per well in maturation medium A supplemented with Rho-kinase inhibitor and 0.1% BSA. Aggregates were maintained under these conditions until day 32, with media changes every 3 days. […] Media was changed every 3 days. To generate hepatocyte like cells from H9, H1 and IPS cells, the following changes were made to the hepatic specification media. […] All cytokines were human and purchased from R&D Systems, unless stated otherwise. EB and monolayer cultures were maintained in a 5% CO2, 5% O2, 90% N2 environment. Aggregation cultures were maintained in a 5% CO2 ambient air environment.
# Total RNA was prepared with RNAqueous® Micro Kit (Ambion) and treated with RNase-free DNase (Ambion). 500 ng to 1 μg RNA was reverse transcribed into cDNA using random hexamers and Oligo(dT) with Superscript® III Reverse Transcriptase (Invitrogen). qPCR was performed on a MasterCycler® ep realplex (Eppendorf) using A QuentiFast SYBR Green PCR Kit (Quiagen) as described previously^45. Expression levels were normalized to the housekeeping gene TATA box binding protein (TBP). […] Total human adult and fetal liver RNA was purchased from Clontech. Two primary hepatocyte RNA samples were provided by Dr Stephen C. […] Two primary hepatocyte samples were cultured for two day and were harvested.
# [4] = hepatic aggregates, day 32 to 44
# [5] = hepatic aggregates, day 32 to 44, average
compound,measurement,setting,value
"Nc1ncnc2c1nc(Br)n2[C@@H]1O[C@@H]2COP(=O)(O)O[C@H]2[C@H]1O [8-Br-cAMP, 8-bromoadenosine-3′5″-cyclic monophosphate]",albumin secretion,hESC-derived cells,not impacted
same,UGT activity,[1],higher than that of primary cultured hepatocytes
same,proportion of AFP+ cells,[2],26% and 34.5+/−12.4%
same,proportion of ALB+ cells,[2],89.5+/−5.6%
same,expression of CYP1A2 and CYP3A4,[3],little increase
same,increase in expression of CYP1A2,[3],18 fold
same,increase in expression of CYP2B6,[3],4.7 fold
same,increase in expression of CYP3A4,[3],2.5 fold
same,induction of UGT1A1 expression,"[3]; HES2-derived aggregates, day 44, relative to non-treated",11 fold
same,expression of PGC1-a,[3]; hESC-derived insulin positive pancreatic cells,not induced
same,expression level of AFP,[3]; [4],downregulated
same,expression level of ALB,[3]; [4],downregulated
same,expression of PGC1-a,[3]; [4],15 fold
same,expression of G6P,[3]; [5],25 fold
same,expression of TAT,[3]; [5],33 fold
